Data reported in patent US8404665B2, “In vivo use of glutathione S-transferase activated nitric oxide donors” (University of Utah Research Foundation, priority 2002, dated 2013).
Read-outs that look alike come from different tables or passages of the source.

Tested on: HL-60 cells
Assay: HL-60 leukemia cell growth (Coulter counter or MTT assay)
Assay type: cell-based, human
Details: for inhibition of cell growth: HL-60 screen; for IC50: Homo sapiens; for effect on cell growth: HL-60, NAC 0.3-0.5 mM or BSO 0.2-0.3 mM alone
Procedure: Cell Lines and Culture Conditions. HL-60, DLD1, and U937 cells were obtained from ATCC (Rockville, Md.). Meth A cells were from Dr. Wolfram Samlowski (University of Utah, Salt Lake City, Utah). The PPC-1 cell line was provided by Dr. Graeme Bolger (University of Alabama, Birmingham, Ala.). For the cell growth and apoptosis experiments, cells were cultured at a density of 150,000 cells/ml in RPMI-1640 with 10% fetal bovine serum at 37° C. in a 5% CO2 humidified atmosphere. Agents were added at the indicated concentrations 24 h after culture initiation. At the indicated time intervals, cells were harvested and washed twice in phosphate buffered saline (PBS) prior to processing for analysis of growth, differentiation, and apoptosis.
Cell Growth, Differentiation and Apoptosis Assays. The number of viable cells was determined using the MTT assay according to the manufacturer's protocol (Promega, Madison, Wis.) or using a Coulter counter. Briefly, a MTT assay is an analytical technique that uses the dye dimethylthiazolyl-diphenyltetrazolium (MTT) which turns from yellow to brownish-purple as it is reduced in the mitochondria of living cells. The assay is useful in calorimetric quantitation of cell viability and proliferation. In contrast, cell differentiation was evaluated using Wright and Non-Specific Esterase (NSE) staining of cells collected on microscope slides by cytospin as previously described (Magrinat, G. et al. (1992) Blood 80: 1880-1884). Apoptosis was assayed by flow cytometry and by determining DNA fragmentation using agarose gel electrophoresis as previously described (Shami, P. J. et al. (1998) Leukemia 12: 1461-1466). For the flow cytometry assay, we used the propidium iodide staining method of Nicoletti et al. (Nicoletti, I. et al. (1991) J. Immunol. Methods 139: 271-279).
For the initial screen, HL60 cells were cultured in triplicate in RPMI1640/10% FBS under standard conditions. Compounds were added to the cultures at the following concentrations: 0, 0.1, 1, 10, and 100 micromolar (uM). Three days after addition of the compounds cell growth was determined either using a Coulter counter or using the MTT assay.
The antiproliferative effects in the human AML (Acute Myeloid Leukemia) cell lines, HL-60 (myeloid leukemia) and U937 (monoblastic leukemia) cells were treated with JS-K for a period of 3 days, upon which cell growth was evaluated using a Coulter counter (CITY, STATE). JS-K was added to HL-60 cells at 0, 0.25, 0.5, 0.75, and 1.0 μM concentrations. […] Similar results were obtained in U937 cells under similar conditions.

[1] = HL-60 assay system, comparison with chemotherapeutic agents, read-out: IC50, growth inhibition

Q: `O=[N+]([O-])c1ccc(ON=[N+]([O-])N2CCN(c3ncccn3)CC2)c([N+](=O)[O-])c1` [JXC-2-56, O^2-(2,4-dinitrophenyl) 1-[4-(pyrimidin-2-yl)piperazin-1-yl]diazen-1-ium-1,2-diolate] was tested. Which “inhibition of cell growth” value did it give?
A: Its value is “good inhibitors of cell growth”.

Q: How did the IC50 (HL-60, read-out: IC50, growth inhibition) turn out when `O=[N+]([O-])c1ccc(Cl)c([N+](=O)[O-])c1` [1-Chloro-2,4-dinitrobenzene, reference compound] was run?
A: Its IC50 is about 6700 nM.

Q: How did the “inhibition of cell growth” value turn out when `O=[N+]([O-])c1ccc(ON=[N+]([O-])N2CCN(c3ccccc3)CC2)c([N+](=O)[O-])c1` [JXC-2-40, O^2-(2,4-dinitrophenyl) 1-[4-phenylpiperazin-1-yl]diazen-1-ium-1,2-diolate] was run?
A: Its value is “good inhibitors of cell growth”.

Q: With `CCCCS(=N)(=O)CCC(N)C(=O)O` (stereo not shown) [BSO, buthionine sulfoximine, reference compound] as the compound, how does the “effect on cell growth” value read?
A: Its value is “did not appear to significantly affect cell growth”.

Q: How did the IC50 [1] turn out when `COc1cccc2c1C(=O)c1c(O)c3c(c(O)c1C2=O)C[C@@](O)(C(C)=O)C[C@@H]3O[C@H]1C[C@H](N)[C@H](O)[C@H](C)O1` [daunorubicin, reference compound] was run?
A: Its IC50 is 10 nM.

Q: `CC(=O)N[C@@H](CS)C(=O)O` [NAC, N-acetyl-L-cysteine, reference compound] was tested. Which “effect on cell growth” value did it give?
A: Its value is “did not appear to significantly affect cell growth”.

Q: `COc1cc([C@@H]2c3cc4c(cc3[C@@H](O[C@@H]3O[C@@H]5CO[C@@H](C)O[C@H]5[C@H](O)[C@H]3O)[C@H]3COC(=O)[C@H]23)OCO4)cc(OC)c1O` [etoposide, reference compound] was tested. Which IC50 [1] did it give?
A: Its IC50 is 300 nM.
